Data published in patent publication US12600709B2, “Nonpeptide somatostatin type 5 receptor agonists and uses thereof” (Crinetics Pharmaceuticals, Inc., priority 2019, dated 2026).
Like-named read-outs stand apart in the source and are kept apart here.

Legend:
[1] = molecular target: T1, human somatostatin receptor subtype 2 (Homo sapiens, UniProt P30874); assay: cAMP assay for SST2R (inhibition of cAMP in CHO-K1 cells); assay type: cell-based; settings: Table B; inhibition of cAMP via human SST2 receptor; read-out: SST2 potency
T1 construct: expressed in transfected cells
Outline: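 CHO-K1 cells stably expressing human SSTR2, plated 4 days prior, treated 20 min at 37° C with 1.6 μM NKH477 plus compound dilutions in HBSS/HEPES pH 7.4/0.1% BSA/0.2 mM IBMX. Lysate cAMP measured by HTRF against standard curve; EC50 from concentration-response.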

[2] = molecular target: T2, human somatostatin receptor subtype 5 (Homo sapiens, UniProt P35346); assay: cAMP assay for SST5R (inhibition of cAMP in CHO-K1 cells); assay type: cell-based; settings: for EC50: inhibition of cAMP via human SST5 receptor, read-out: SST5 potency; for Fold selectivity for SST5 vs SST2: class symbols, SST5 receptor over SST2 receptor
T2 construct: expressed in transfected cells
Outline: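 CHO-K1 cells stably expressing human SSTR5 were treated 20 min at 37 °C with compounds plus 1.6 μM NKH477 in HBSS, 0.5 mM HEPES pH 7.4, 0.1% BSA, 0.2 mM IBMX. Lysate cAMP measured by HTRF against a standard curve; EC50 from cAMP-versus-concentration plots.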

T2 sequence (P35346 whole entry): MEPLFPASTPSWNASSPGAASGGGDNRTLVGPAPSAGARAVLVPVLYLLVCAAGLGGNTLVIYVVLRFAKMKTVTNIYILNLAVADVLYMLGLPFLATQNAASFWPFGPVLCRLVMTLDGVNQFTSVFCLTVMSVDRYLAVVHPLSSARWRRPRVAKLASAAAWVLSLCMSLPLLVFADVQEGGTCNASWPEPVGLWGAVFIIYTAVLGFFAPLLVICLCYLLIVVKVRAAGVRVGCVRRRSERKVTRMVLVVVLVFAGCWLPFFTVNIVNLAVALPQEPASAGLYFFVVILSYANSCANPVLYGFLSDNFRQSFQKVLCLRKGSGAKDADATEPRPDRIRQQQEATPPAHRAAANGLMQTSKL
T1 sequence (P30874 whole entry): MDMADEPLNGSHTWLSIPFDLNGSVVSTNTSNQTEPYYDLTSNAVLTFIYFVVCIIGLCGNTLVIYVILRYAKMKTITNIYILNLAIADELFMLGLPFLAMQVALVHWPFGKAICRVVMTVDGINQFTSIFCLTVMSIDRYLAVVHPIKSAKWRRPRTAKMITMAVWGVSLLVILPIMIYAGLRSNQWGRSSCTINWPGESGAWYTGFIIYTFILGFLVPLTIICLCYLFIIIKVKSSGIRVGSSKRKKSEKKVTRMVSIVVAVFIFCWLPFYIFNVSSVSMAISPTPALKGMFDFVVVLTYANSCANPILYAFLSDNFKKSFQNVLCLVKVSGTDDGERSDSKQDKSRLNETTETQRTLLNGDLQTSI

Structure (SMILES) | EC50 [1] [nM] | EC50 ([2]; Table A) [nM] | Fold selectivity for SST5 vs SST2 ([2]; Table B) | EC50 ([2]; Table B) [nM]
C[C@H](NC(=O)c1cnc(C#N)c(-c2cc(F)cc(OC(F)F)c2)c1N1CC[C@](C)(N)C1)C(F)(F)F [1-180, 4-[(3S)-3-amino-3-methylpyrrolidin-1-yl]-6-cyano-5-[3-(difluoromethoxy)-5-fluorophenyl]-N-[(2S)-1,1,1-trifluoropropan-2-yl]pyridine-3-carboxamide] | 10 to 100 | < 10 | +++ (+++=>500) | < 10
Cc1ncc(C(=O)NC2CCC(F)(F)CC2)c(N2CC[C@](C)(N)C2)c1-c1cc(F)cc(F)c1 [1-181, 4-[(3S)-3-amino-3-methylpyrrolidin-1-yl]-N-(4,4-difluorocyclohexyl)-5-(3,5-difluorophenyl)-6-methylpyridine-3-carboxamide] | 100 to 1000 | < 10 | +++ (+++=>500) | < 10
COc1ncc(C(=O)N[C@@H](C)C(F)(F)F)c(N2CC[C@](C)(N)C2)c1-c1ccc2ncn(C)c2c1 [1-182, 4-[(3S)-3-amino-3-methylpyrrolidin-1-yl]-6-methoxy-5-(1-methyl-1H-1,3-benzodiazol-6-yl)-N-[(2S)-1,1,1-trifluoropropan-2-yl]pyridine-3-carboxamide] | > 1000 | < 10 | +++ (+++=>500) | < 10
COc1ncc(C(=O)N[C@@H](C)C(F)(F)F)c(N2CC[C@](C)(N)C2)c1-c1cccc2c1cnn2C [1-183, 4-[(3S)-3-amino-3-methylpyrrolidin-1-yl]-6-methoxy-5-(1-methyl-1H-indazol-4-yl)-N-[(2S)-1,1,1-trifluoropropan-2-yl]pyridine-3-carboxamide] | > 1000 | < 10 | +++ (+++=>500) | < 10
COc1ncc(C(=O)N[C@@H](C)C(F)(F)F)c(N2CC[C@](C)(N)C2)c1-c1cccc2c1OC(F)(F)O2 [1-184, 4-[(3S)-3-amino-3-methylpyrrolidin-1-yl]-5-(2,2-difluoro-2H-1,3-benzodioxol-4-yl)-6-methoxy-N-[(2S)-1,1,1-trifluoropropan-2-yl]pyridine-3-carboxamide] | 100 to 1000 | < 10 | +++ (+++=>500) | < 10
COc1ncc(C(=O)N[C@@H](C)C(F)(F)F)c(N2CC[C@](C)(N)C2)c1-c1ccc2nonc2c1 [1-186, 4-[(3S)-3-amino-3-methylpyrrolidin-1-yl]-5-(2,1,3-benzoxadiazol-5-yl)-6-methoxy-N-[(2S)-1,1,1-trifluoropropan-2-yl]pyridine-3-carboxamide] | 100 to 1000 | < 10 | +++ (+++=>500) | < 10
COc1ncc(C(=O)N[C@@H](C)C(F)(F)F)c(N2CC[C@](C)(N)C2)c1-c1c(C)noc1C [1-187, 4-[(3S)-3-amino-3-methylpyrrolidin-1-yl]-5-(3,5-dimethyl-1,2-oxazol-4-yl)-6-methoxy-N-[(2S)-1,1,1-trifluoropropan-2-yl]pyridine-3-carboxamide] | > 1000 | < 10 | +++ (+++=>500) | < 10
COc1ncc(C(=O)N[C@@H](C)C(F)(F)F)c(N2CC[C@](C)(N)C2)c1-c1cc(F)cc(OC(F)F)c1 [1-188, 4-[(3S)-3-amino-3-methylpyrrolidin-1-yl]-5-[3-(difluoromethoxy)-5-fluorophenyl]-6-methoxy-N-[(2S)-1,1,1-trifluoropropan-2-yl]pyridine-3-carboxamide] | 100 to 1000 | < 10 | +++ (+++=>500) | < 10
C[C@H](NC(=O)c1cnc(C#N)c(-c2cc(F)cc(F)c2)c1N1CC[C@](C)(N)C1)C(F)(F)F [1-192, 4-[(3S)-3-amino-3-methylpyrrolidin-1-yl]-6-cyano-5-(3,5-difluorophenyl)-N-[(2S)-1,1,1-trifluoropropan-2-yl]pyridine-3-carboxamide] | 10 to 100 | < 10 | ++ (++=100 to 499) | < 10
COc1ncc(C(=O)NC23CC(F)(C2)C3)c(N2CC[C@H](N)C2)c1-c1cc(F)cc(F)c1 [1-196, 4-[(3S)-3-aminopyrrolidin-1-yl]-5-(3,5-difluorophenyl)-N-{3-fluorobicyclo[1.1.1]pentan-1-yl}-6-methoxypyridine-3-carboxamide] | > 1000 | < 10 | +++ (+++=>500) | < 10

More lines, now with the values ahead:

EC50 [1] [nM] | EC50 ([2]; Table A) [nM] | Fold selectivity for SST5 vs SST2 ([2]; Table B) | EC50 ([2]; Table B) [nM] | Structure (SMILES)
100 to 1000 | < 10 | +++ (+++=>500) | < 10 | CCOc1ncc(C(=O)N[C@@H](C)C2CC2)c(N2CC[C@](C)(N)C2)c1-c1cc(F)cc(F)c1 [1-176, 4-[(3S)-3-amino-3-methylpyrrolidin-1-yl]-N-[(1S)-1-cyclopropylethyl]-5-(3,5-difluorophenyl)-6-ethoxypyridine-3-carboxamide]
10 to 100 | < 10 | +++ (+++=>500) | < 10 | C[C@H](NC(=O)c1cnc(OCC(F)F)c(-c2cc(F)cc(F)c2)c1N1CC[C@](C)(N)C1)C1CC1 [1-177, 4-[(3S)-3-amino-3-methylpyrrolidin-1-yl]-N-[(1S)-1-cyclopropylethyl]-6-(2,2-difluoroethoxy)-5-(3,5-difluorophenyl)pyridine-3-carboxamide]
10 to 100 | < 10 | +++ (+++=>500) | < 10 | C[C@H](NC(=O)c1cnc(OCC2CC2)c(-c2cc(F)cc(F)c2)c1N1CC[C@](C)(N)C1)C1CC1 [1-178, 4-[(3S)-3-amino-3-methylpyrrolidin-1-yl]-N-[(1S)-1-cyclopropylethyl]-6-(cyclopropylmethoxy)-5-(3,5-difluorophenyl)pyridine-3-carboxamide]
100 to 1000 | < 10 | +++ (+++=>500) | < 10 | COCCOc1ncc(C(=O)N[C@@H](C)C2CC2)c(N2CC[C@](C)(N)C2)c1-c1cc(F)cc(F)c1 [1-179, 4-[(3S)-3-amino-3-methylpyrrolidin-1-yl]-N-[(1S)-1-cyclopropylethyl]-5-(3,5-difluorophenyl)-6-(2-methoxyethoxy)pyridine-3-carboxamide]
10 to 100 | < 10 | ++ (++=100 to 499) | < 10 | C[C@H](NC(=O)c1cnc(C(F)(F)F)c(-c2cc(F)cc(Cl)c2)c1N1CC[C@](C)(N)C1)C1CC1 [1-195, 4-[(3S)-3-amino-3-methylpyrrolidin-1-yl]-5-(3-chloro-5-fluorophenyl)-N-[(1S)-1-cyclopropylethyl]-6-(trifluoromethyl)pyridine-3-carboxamide]
100 to 1000 | < 10 | +++ (+++=>500) | < 10 | COc1cc(C#N)cc(-c2c(C(F)(F)F)ncc(C(=O)N[C@@H](C)C3CC3)c2N2CC[C@](C)(N)C2)c1 [1-197, 4-[(3S)-3-amino-3-methylpyrrolidin-1-yl]-5-(3-cyano-5-methoxyphenyl)-N-[(1S)-1-cyclopropylethyl]-6-(trifluoromethyl)pyridine-3-carboxamide]
